# Measurements: US20240391900A1, “RIP1 KINASE INHIBITOR AND USE THEREOF” (SIRONAX (BEIJING) CO., LTD., priority 2021, published 2024)
# Legend:
# [1] = test system: HT-29 human colon cancer cells; assay: In vitro biological activity assay: inhibition of TNFα/SmacM/Z_VAD FMK-induced programmed necrosis, CellTiter-Glo viability; format: cell-based; conditions: HT-29 cells, necrosis induced with TNF-α 100 ng/mL, SmacM 100 nM, Z_VAD-FMK 10 μM, overnight, cell viability by chemiluminescence
# Procedure: In order to verify the inhibitory effect of the compounds of the present disclosure on programmed necrosis at the cellular level, a type of cells closely related to the RIP1 pathway, namely HT-29 human colon cancer cells, were selected. The used activation mode is a combination of tumor necrosis factor (TNFα), cysteine aspartate activator mimic (SmacM) and pan-caspase inhibitor Z_VAD FMK, and the cell viability was calculated by detecting chemiluminescence values, thus obtaining the biological activity of the compound inhibiting the programmed necrosis of cells.
# Cell line: HT-29 (ATCC® HTB-38™)
# • 2.1. The Growth Status of HT-29 Cells was Regularly Checked to Ensure their Normal Growth. • 2.2. McCOY's 5A culture medium containing 10% FBS was preheated in a 37° C. water bath for 30 minutes. When the culture medium was ready for use, the cell passage and inoculation was performed in a Class II safety cabinet with aseptic technique. • 2.3. In a T75 culture flask, when the growth density of cells reached the abundance of approximately 80%, the culture medium was aspirated and cells were washed twice with pre-warmed PBS. • 2.4. 2-3 mL of trypsin (Gibco, catalog number 25200-056) was added and the T75 culture flask was transferred to a 37° C. incubator. • 2.5. After 3-5 minutes, the side of the culture flask was tapped and examined under a microscope for detachment of the cells to the flask. If necessary, the cells were placed back into the incubator to wait for another 5-10 minutes until 85% of the cells were detached from each other. • 2.6. 6-9 mL of complete cell culture medium was quickly added to terminate the trypsin reaction, and then the cells were transferred to a sterile 15 mL centrifuge tube. The cells were pelleted by centrifugation at 300 g for 5-7 minutes in a centrifuge, and then the supernatant was decanted. • 2.7. The cells were resuspended in 10 mL of fresh cell culture medium and the cells were counted by using a hemocytometer. • 2.8. 3,000 cells contained in 100 μL were inoculated into each well of a sterile 96-well cell culture plate (Corning 3903) and cultured overnight at 37° C. under 5% CO2.
# • 3.1. All batches of compounds were dissolved in dimethyl sulfoxide (DMSO) to prepare a 20 mM stock. • 3.2. 3 μL of 20 mM stock of each compound was added to 27 μL of DMSO and mixed thoroughly, and then diluted at a dilution ratio of […] (20 μL compound+40 μL DMSO) until the 10-12 points ended. After the compounds were diluted, they were set aside for use. • 3.3. The cell culture plate was taken out from the incubator, washed once with PBS, and replaced with a fresh culture medium free of serum. A mixture of TNF-α (100 ng/mL), SMAC mimic (SmacM, 100 nM) and Z_VAD-FMK (10 μM) was added to induce the programmed necrosis in HT-29 cells. • 3.4. The compound dilution plate was prepared, 0.5 μL of the diluted compound was added to the corresponding 96-well plate, and mixed gently. Two duplicate wells were prepared for each compound. • 3.5. The treated 96-well plate to which the compounds had been added was placed back into the 37° C. incubator containing 5% CO2 and incubated overnight.
# The luminescence cell viability detection kit was used to calculate the activity of the compound by measuring the ATP content in viable cells. • 4.1. The CellTiter-Glo® buffer and dry powdered substrate were equilibrated to room temperature before use. • 4.2. The CellTiter-Glo® substrate was resuspended with Cell Titer-Glo® buffer, then homogeneously mixed by gently vortexing. • 4.3. The cell culture plate was taken out and equilibrated at room temperature for 10 minutes (usually not suitable if more than 30 minutes). • 4.4. 20 μL of enzyme/substrate mixture was added into the 96-well assay plate with a multi-channel pipettor. • 4.5. The 96-well assay plate was placed on a shaker and the content was mixed for 2-3 minutes to promote the cell lysis. • 4.6. […]
# [2] = Rapid brain distribution assay (LC-MS/MS, brain tissue/plasma ratio); format: in vivo; conditions: mouse, ip, CD1 mice, intraperitoneal, grouped compounds, brain tissue and plasma taken one hour after administration, read-out: B/P
# Procedure: The contents in plasma and tissue samples were measured by LC-MS/MS to obtain the ratio of the concentration in the brain tissue sample to that in the plasma sample, and compounds with blood-brain penetration could be quickly screened.
# • 3.1. A group of compounds (usually 3-4 compounds, the molecular weight difference between each other was greater than 5), weighing 1-2 mg of each compound, were added into the same 4 mL weighing bottle. • 3.2. A mixed solvent of 10% DMSO+20% polyethylene glycol-15-hydroxystearate+70% H2O was used to prepare each group to a volume of 1.5 mL-2 mL. • 3.3. The mixture was ultrasonically vortexed until a homogeneous solution was obtained for intraperitioneal administration.
# • 4.1. Three CD1 mice were prepared for each group and weighed. • 4.2. The administration volume was 10 mL/kg, and the mice were administered intraperitoneally. • 4.3. Timing was started after administration, and plasma samples and brain tissue samples were taken one hour later. • 4.4. The brain tissue sample was weighed, and then 4 fold volume of physiological saline was added. The resulting mixture was homogenized, and frozen at −20° C. until analysis.
# • 5.1. The exact molecular weight of a compound was found from the compound information table. • 5.2. The corresponding parent ions and fragment ions were found, and the mass spectrometry condition and the liquid phase (chromatography) method were optimized to find the appropriate condition and method.
# • 6.1. Plasma sample (5-fold dilution): 10 μL of the plasma sample was taken, and 40 μL of the blank plasma sample and 50 μL of the corresponding blank tissue sample were added. • 6.2 Tissue sample processing: 50 μL of the tissue sample (brain, kidney, liver and the like) was taken, and 50 μL of the blank plasma sample was added. • 6.3. The above tissue sample and the diluted plasma sample were taken, and 500 μL of the internal standard solution was added to precipitate the protein. The resulting mixture was vortexed for 2 minutes, stored by freezing at −20° C. for 1 hour and centrifuged at 3800 rpm for 15 minutes at 4° C. The supernatant was taken, 5-fold diluted with 50% MeOH, and then vortexed for 2 minutes, ready for measurement.
# The sample was detected by using an appropriate LC-MS/MS method.
# Distribution ratio of tissue/plasma=(peak area of compound in tissue/peak area of internal standard)/(peak area of compound in plasma/peak area of internal standard)
SMILES,Kp at 1 h [2],EC50 [1]
"Nc1ncc(C#Cc2cncc(-n3nc4c(n3)C(C3CCCCC3)CC4)c2)cn1 (stereo not drawn) [Compound 2, 5-((5-(4-cyclohexyl-5,6-dihydrocyclopenta[d][1,2,3]triazol-2 (4H)-yl)pyridin-3-yl)ethynyl)pyrimidin-2-amine]",0.62,≤ 100 nM
"Nc1ncc(C#CC2CCC(n3cc4c(n3)C(c3ccccc3)CC4)C2)cn1 (stereo not drawn) [Compound 3, 5-((3-(6-phenyl-5,6-dihydrocyclopenta[c]pyrazol-2 (4H)-yl)cyclopentyl)ethynyl)pyrimidin-2-amine]",3.96,≤ 100 nM
"Cn1c(-n2cc3c(n2)C(c2ccccc2)CC3)cc(C#Cc2cnc(N)nc2)cc1=O (stereo not drawn) [Compound 4, 4-((2-aminopyrimidin-5-yl)ethynyl)-1-methyl-6-(6-phenyl-5,6-dihydrocyclopenta[c]pyrazol-2 (4H)-yl)pyridine-2 (1H)-one]",1.44,≤ 100 nM
"Nc1ncc(C#Cc2cc(-n3cc4c(n3)C(c3ccccc3)CC4)ncn2)cn1 (stereo not drawn) [Compound 9, 5-((6-(6-phenyl-5,6-dihydrocyclopenta[c]pyrazol-2 (4H)-yl)pyrimidine-4-yl)ethynyl)pyrimidin-2-amine]",2.85,100 to 1000 nM
"NC(=O)c1ncc(C#Cc2cncc(-n3cc4c(n3)C(c3ccccc3)CC4)c2)cn1 (stereo not drawn) [Compound 10, 5-((5-(6-phenyl-5,6-dihydrocyclopenta[c]pyrazol-2 (4H)-yl)pyridin-3-yl)ethynyl)pyrimidine-2-carboxamide]",1.34,> 1000 nM
Nc1ncc(C#Cc2cncc(-n3cc4c(n3)[C@H](c3ccccc3)CC4)c2)cn1 [Compound 14],2.92,≤ 100 nM
"C(#Cc1cncc(-n2cc3c(n2)C(c2ccccc2)CC3)c1)c1ccccc1 (stereo not drawn) [Compound 30, 6-phenyl-2-(5-(phenylethynyl)pyridin-3-yl)-2,4,5,6-tetrahydrocyclopenta[c]pyrazole]",0.429,> 1000 nM
Nc1ncc(C#Cc2cncc(-n3cc4c(n3)[C@H](c3ccccc3)CC4)c2)s1 [Compound 31],2.38,≤ 100 nM
Nc1ncc(C#Cc2cncc(-n3cc4c(n3)C(c3ccccc3)CC4)c2)cn1 (stereo not drawn) [Compound 38],2.46,≤ 100 nM
Nc1ncc(C#Cc2cncc(-n3nc4c(c3Cl)CCC4c3ccccc3)c2)cn1 (stereo not drawn) [Compound 39],2.07,≤ 100 nM
Cc1c2c(nn1-c1cncc(C#Cc3cnc(N)nc3)c1)C(c1ccccc1)CC2 (stereo not drawn) [Compound 40],1.61,≤ 100 nM

# Now from value to compound, other results behind:
Kp at 1 h [2],SMILES,EC50 [1]
0.735,"C(#Cc1cnc2cccnn12)c1cccc(-n2cc3c(n2)C(c2ccccc2)CC3)n1 (stereo not drawn) [Compound 1, 3-((6-(6-phenyl-5,6-dihydrocyclopenta[c]pyrazol-2 (4H)-yl)pyridin-2-yl)ethynyl)imidazo[1,2-b]pyridazine]",≤ 100 nM
0.75,C(#Cc1cnc2cccnn12)c1cccc(-n2cc3c(n2)C(c2ccccc2)CC3)c1 (stereo not drawn) [Compound 5],≤ 100 nM
1.24,"C(#Cc1cnc2cccnn12)c1cncc(-n2cc3c(n2)C(c2ccccc2)CC3)c1 (stereo not drawn) [Compound 6, 3-((5-(6-phenyl-5,6-dihydrocyclopenta[c]pyrazol-2 (4H)-yl)pyridin-3-yl)ethynyl)imidazo[1,2-b]pyridazine]",≤ 100 nM
0.12,"C(#Cc1cnc2cccnn12)c1ccnc(-n2cc3c(n2)C(c2ccccc2)CC3)n1 (stereo not drawn) [Compound 7, 3-((2-(6-phenyl-5,6-dihydrocyclopenta[c]pyrazol-2 (4H)-yl)pyrimidine-4-yl)ethynyl)imidazo[1,2-b]pyridazine]",100 to 1000 nM
1.23,"Oc1ccc(C#Cc2cncc(-n3cc4c(n3)C(c3ccccc3)CC4)c2)nn1 (stereo not drawn) [Compound 11, 6-((5-(6-phenyl-5,6-dihydrocyclopenta[c]pyrazol-2 (4H)-yl)pyridin-3-yl)ethynyl)pyridazine-3-ol]",≤ 100 nM
0.406,"C(#Cc1cnc2ccccn12)c1cccc(-n2cc3c(n2)C(c2ccccc2)CC3)c1 (stereo not drawn) [Compound 15, 3-((3-(6-phenyl-5,6-dihydrocyclopenta[c]pyrazol-2 (4H)-yl)phenyl)ethynyl)imidazo[1,2-a]pyridine]",≤ 100 nM
2.24,"Nc1ccc(C#Cc2cncc(-n3cc4c(n3)C(c3ccccc3)CC4)c2)cn1 (stereo not drawn) [Compound 16, 5-((5-(6-phenyl-5,6-dihydrocyclopenta[c]pyrazol-2 (4H)-yl)pyridin-3-yl)ethynyl)pyridine-2-amine]",≤ 100 nM
1.33,"Cc1ncc(C#Cc2cccc(-n3cc4c(n3)C(c3ccccc3)CC4)c2)n1C (stereo not drawn) [Compound 24, 2-(3-((1,2-dimethyl-iH-imidazole-5-yl)ethynyl)phenyl)-6-phenyl-2,4,5,6-tetrahydrocyclopenta[c]pyrazole]",≤ 100 nM
1.91,Nc1ncc(C#Cc2ccnc(-n3cc4c(n3)C(c3ccccc3)CC4)c2)cn1 (stereo not drawn) [Compound 28],≤ 100 nM
1.27,"C(#Cc1cccc(-n2cc3c(n2)C(c2ccccc2)CC3)c1)c1cccnc1 (stereo not drawn) [Compound 32, 6-phenyl-2-(3-(pyridin-3-ethynyl)phenyl)-2,4,5,6-tetrahydrocyclopenta[c]pyrazole]",≤ 100 nM
0.563,"COc1ccc(C#Cc2cccc(-n3cc4c(n3)C(c3ccccc3)CC4)c2)cn1 (stereo not drawn) [Compound 33, 2-(3-((6-methoxypyridin-3-yl)ethynyl)phenyl)-6-phenyl-2,4,5,6-tetrahydrocyclopenta[c]pyrazole]",≤ 100 nM
3.62,"Nc1ncc(C#Cc2cccc(-n3cc4c(n3)C(c3ccccc3)CC4)c2)cn1 (stereo not drawn) [Compound 36, 5-((3-(6-phenyl-5,6-dihydrocyclopenta[c]pyrazol-2 (4H)-yl)phenyl)ethynyl)pyrimidin-2-amine]",≤ 100 nM
1.06,C(#Cc1cnc2cccnn12)c1cc(-n2cc3c(n2)C(c2ccccc2)CC3)ccn1 (stereo not drawn) [Compound 37],≤ 100 nM
